# According to patent US20240366560A1, “SMALL MOLECULE TREATMENT OF FATTY LIVER DISEASE AND HCC” (ScandiEdge Therapeutics AB, priority 2021, published 2024):
# What was measured:
# Pklr = assay: In vivo efficacy study in rats: hepatic Pklr expression; settings: rat animal study
# Method: In vivo efficacy studies. […] The HSD group were treated with vehicle solution only.
# HepG2 cells = assay: MTT assay of liver cancer cell viability; format: cell-based; settings: HepG2, 10 μM, two days, FIG. 4
# Method: HepG2 cells were seeded into a 96 well plate at 20,000 cells per well as hexaplicated. Next day, treatment of the cells with 10 μM drugs (BX-912 and JNK-IN-5A) was started. The treatment lasted for two days. Cell viability was measured using MTT assay. Cells were incubated with 5 mg/ml MTT 3-4 5-DIMETHYLTHIAZ ([…] Thermo fisher) in PBS for 2 h. Microplate reader measured cell viability O.D at 570 nm.
# FASN = FASN protein level by western blot in steatosis-induced HepG2, 7-day drug treatment; format: cell-based; settings: steatosis-induced HepG2, 7 days of drug treatment, P<0.05, FIG. 2C
# Method: WT HepG2 was included in this study and cultured by Roswell Park Memorial Institute (RPMI, R2405, Sigma Aldrich) 1640 Medium with 10% fetal bovine serum (FBS) and 1% penicillin-streptomycin (PS). To induce a steatosis model into WT HepG2 cells, high glucose Dulbecco's Modified Eagle Media (DMEM, D0822/D5671, Sigma-Aldrich) containing 10% FBS and 1% PS was used as medium for one week, together with 10 μg/mL insulin and 10 μM T0901317. All of cells were incubated in the incubator with 5% CO2 and 37° C. (Thermo SCIENTIFIC). Fresh medium was provided every two days.
# As for drug-screening, different numbers of HepG2 cells were seeded for distinct experiments. More in details, 40,000 cells and 500,000 cells were used for 2-day-drug treatment in 96-well-plate and 6-well plate, respectively, while 80,000 cells and 300,000 cells were used for one-week drug treatment in 96-well plate and 6-well plate, respectively. Detailed drug dosages could be found in FIG. 5. Fresh medium was provided every two days.
# Protein content levels were detected by western blot. After the respective treatment of drugs, the cell pellets were lysed in cell lytic M, followed by protein extraction from supernatant (10 min, 13,000r/min centrifuge). Extracted cell lysate was stored in −20° C. Proteins were quantified through Bovine albumin serum (BAS) standard curve with protein assay dye reagent (BIO-RAD). The proteins were separated by SDS-PAGE with 100v in 90 min by mini-protein TGX precast gels (4-15%, 15 wells, 15 μl/well, BIO-RAD), and then transfer to Mini PVDF transfer package through transfer system (Transfer-Turbo, BIO-RAD). After 30 min blocking with 5% skim milk in cold room (4° C.) and washing with TBST, membrane was cut by the size of interested proteins. Primary antibodies were added into the corresponding membrane sections for overnight binding. Then the membranes were washed with TBST, and the secondary antibodies were incubated for 1 h in cold room. The following antibody were used: (Goat pAb to Rb lg, ab205718, abcam; Rb pAb to beta-actin, ab8227, abcam; anti-pklr, HPA006653, SIGMA; Rb pAb to fatty acid synthase, ab99539, abcam). The bindings were imaged by immunostaining and machine (ImageQuant LAS 500). All antibodies were purchased from Abcam online, and βactin was used as global normalized protein. After measurement, the strength of signal for each protein was quantified by ImageJ. The background noise was removed, and all results were normalized by the levels of β-actin.
# To further analyse the effect of these drugs on lipid accumulation via the DNL pathway, steatosis was induced to HepG2 by treating the cells with high glucose medium (DMEM), insulin and T0901317 (Hansmannel et al., 2006). […] Therefore, the effects of these two drugs on the de novo synthesis of lipids were investigated based on the steatosis-induced HepG2 model. […] Taken together, it was shown that BX-912 and JNK-IN-5A effectively alleviate the protein expression of PKLR and FASN as well as TG levels in HepG2 cell lines, and thus, it was decided to perform in vivo evaluations to test the effect of these two drugs.
# Sprague Dawley male rats = assay: In vivo biosafety study: immunohistochemical 8-OH-dG examination of liver; design: species or system rat; settings: 30 mg/kg oral, 7 days, CHOW
# Method: In vivo biosafety studies. Healthy Sprague Dawley male rats (12 weeks old, 250-280 g) were obtained from Atatürk University Experimental Research Center (ATADEM, Erzurum Turkey) and housed under standard environmental conditions (temperature 20° C.-25° C., humidity 50±20% and 12-hour light/dark diurnal cycle). Food and water were available ad libitum. Rats were randomly separated into one control group and two experimental groups (30 mg/kg/day BX-912 or JNK-IN-5A, n=5). BX-912 and JNK-IN-5A were dissolved in DMSO and orally administrated using oral gavage for 7 days. The control group were received the same amount of vehicle solution only.
# After 7 days, rats were anaesthetized, and blood samples were collected from the abdominal aorta for biochemical and haematological analysis. The plasma was separated and stored at −80° C. for further analysis. Major organs such as heart, kidney, liver, muscle, adipose, intestine (duodenum, ileum, jejunum), pancreas, colon, and stomach were collected from all the animals for further analysis. Selected organs were fixed in 10% neutral buffered formalin for histopathological examination.
# Immunohistochemical examination. After deparaffinization, the slides were immersed in antigen retrieval solution (pH 6.0) and heated in microwave for 15 min to unmask the antigens. The sections were then dipped in 3% H2O2 for 10 min to block endogenous peroxidase activity. […]
Compound,hepatic Pklr expression in vivo (Pklr),viability of liver cancer cells in the MTT assay (HepG2 cells),protein expression level of FASN (FASN),8-OH-dG expression in liver tissues (IHC) (Sprague Dawley male rats)
"O=C(Nc1cccc(Nc2ncc(Br)c(NCCc3cnc[nH]3)n2)c1)N1CCCC1 [BX-912, N-[3-[[5-bromo-4-[[2-(1H-imidazol-5-yl)ethyl]amino]-2-pyrimidinyl]amino]phenyl]-1-pyrrolidinecarboxamide]",significantly decreased,significantly reduced,significantly reduced,negative
"N#Cc1c(NC(=O)c2cccc3ccccc23)sc2c1CCCC2 [JNK-IN-5A, N-(3-cyano-4,5,6,7-tetrahydrobenzo [b]thien-2-yl)-1-naphthalenecarboxamide]",significantly decreased,significantly reduced,significantly reduced,negative
